How the values were obtained:
[1] = target: T1, Recombinant human PI3Kγ (full length human PI3K p110γ) (Homo sapiens, UniProt P48736); test: Kinase assay of PI3Kγ (solid-phase lipid kinase assay); assay type: biochemical; details: in vitro PI3K-γ inhibitory activity, class symbols; read-out: in vitro PI3K-gamma
T1 construct: full length human PI3K p110γ fused with a His6-tag at the C-terminus; His6 (C); purchased ALEXIS BIOCHEMICALS #201-055-C010; host or cells: S. frugiperda 9 insect cells
T1 sequence (P48736 whole entry, the tested form may be a part): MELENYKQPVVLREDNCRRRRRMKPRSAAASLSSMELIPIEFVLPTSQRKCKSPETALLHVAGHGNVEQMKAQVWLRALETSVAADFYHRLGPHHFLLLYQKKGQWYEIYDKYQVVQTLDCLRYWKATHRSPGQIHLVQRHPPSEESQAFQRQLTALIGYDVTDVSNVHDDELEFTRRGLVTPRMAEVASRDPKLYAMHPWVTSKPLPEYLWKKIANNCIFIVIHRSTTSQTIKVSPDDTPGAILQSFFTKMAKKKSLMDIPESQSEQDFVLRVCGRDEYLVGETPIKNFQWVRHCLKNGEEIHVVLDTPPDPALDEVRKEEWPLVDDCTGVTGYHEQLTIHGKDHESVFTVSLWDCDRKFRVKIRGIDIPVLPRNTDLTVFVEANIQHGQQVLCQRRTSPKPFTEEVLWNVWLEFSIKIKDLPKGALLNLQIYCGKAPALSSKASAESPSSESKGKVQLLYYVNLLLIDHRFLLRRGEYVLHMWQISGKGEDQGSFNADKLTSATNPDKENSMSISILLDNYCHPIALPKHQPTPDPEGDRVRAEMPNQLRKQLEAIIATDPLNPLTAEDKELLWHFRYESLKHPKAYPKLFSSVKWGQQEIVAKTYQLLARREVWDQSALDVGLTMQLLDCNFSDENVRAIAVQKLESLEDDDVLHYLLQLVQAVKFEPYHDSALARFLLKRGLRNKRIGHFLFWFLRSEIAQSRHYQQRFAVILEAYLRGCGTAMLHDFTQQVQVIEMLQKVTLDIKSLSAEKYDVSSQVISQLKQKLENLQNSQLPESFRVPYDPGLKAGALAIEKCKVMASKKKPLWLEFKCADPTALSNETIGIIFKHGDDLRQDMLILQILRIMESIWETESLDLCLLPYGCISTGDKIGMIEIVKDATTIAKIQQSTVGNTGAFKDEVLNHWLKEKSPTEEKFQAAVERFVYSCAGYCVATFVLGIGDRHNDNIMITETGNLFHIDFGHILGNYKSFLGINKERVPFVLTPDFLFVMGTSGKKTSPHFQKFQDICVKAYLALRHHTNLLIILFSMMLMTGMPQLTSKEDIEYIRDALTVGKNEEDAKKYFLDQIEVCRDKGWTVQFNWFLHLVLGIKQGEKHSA

| SMILES | IC50 [1] | melting point |
| --- | --- | --- |
| COc1ccc2c(c1)C1=NCCN1C(NC(=O)c1ccc3[nH]cnc3c1)=N2.Cl [Example 2-94] | < 100 nM | 288 °C |
| C=Cc1ccc2c(c1)C1=NCCN1C(NC(=O)c1cccnc1)=N2 [Example 2-95] | 100 to 500 nM | 196 to 198 °C |
| Cl.O=C(NC1=Nc2ccc(-c3ccco3)cc2C2=NCCN12)c1cccnc1 [Example 2-97] | 100 to 500 nM | 298 to 299 °C |
| Cl.O=C(NC1=Nc2cccc(Cl)c2C2=NCCN12)c1cccnc1 [Example 2-98] | 100 to 500 nM | 249 °C |
| O=C(NC1=Nc2c(F)cccc2C2=NCCN12)c1cccnc1 [Example 2-99] | 100 to 500 nM | 243 °C |
| Cl.O=C(NC1=Nc2c(F)cccc2C2=NCCN12)c1cccnc1 [Example 2-100] | < 100 nM | 288 °C |
| O=C(NC1=Nc2c(F)cccc2C2=NCCN12)c1ccc2[nH]cnc2c1 [Example 2-101] | < 100 nM | > 300 °C |
| Cl.O=C(NC1=Nc2c(Cl)cccc2C2=NCCN12)c1cccnc1 [Example 2-103] | 100 to 500 nM | > 280 °C |
| CC(=O)Nc1ccc(C(=O)NC2=Nc3c(Cl)cccc3C3=NCCN23)cn1 [Example 2-104] | 100 to 500 nM | > 280 °C |
| CC(=O)Nc1ccc(C(=O)NC2=Nc3c(Cl)cccc3C3=NCCN23)cn1.Cl [Example 2-105] | < 100 nM | > 280 °C |
| Cl.O=C(NC1=Nc2c(Cl)cccc2C2=NCCN12)c1ccc2[nH]cnc2c1 [Example 2-106] | 100 to 500 nM | > 280 °C |
| Cc1cccc2c1N=C(NC(=O)c1cccnc1)N1CCN=C21 [Example 2-107] | 100 to 500 nM | 244 °C |
| Cc1cccc2c1N=C(NC(=O)c1ccc3[nH]cnc3c1)N1CCN=C21 [Example 2-109] | < 100 nM | > 290 °C |
| Cl.O=C(NC1=Nc2c(cccc2C(F)(F)F)C2=NCCN12)c1cccnc1 [Example 2-111] | < 100 nM | 263 °C |
| O=C(NC1=Nc2c(cccc2C(F)(F)F)C2=NCCN12)c1ccc2[nH]cnc2c1 [Example 2-112] | < 100 nM | 286 °C |
| COc1cccc2c1N=C(NC(=O)c1cccnc1)N1CCN=C21 [Example 2-114] | < 100 nM | 110 °C |
| COc1cccc2c1N=C(NC(=O)c1cccnc1C)N1CCN=C21 [Example 2-116] | 100 to 500 nM | 204 to 205 °C |
| COc1cccc2c1N=C(NC(=O)c1cccnc1C)N1CCN=C21.Cl [Example 2-117] | < 100 nM | 251 °C (dec.) |
| COc1cccc2c1N=C(NC(=O)c1cccnc1Cl)N1CCN=C21 [Example 2-118] | < 100 nM | 185 °C (dec.) |
| COc1cccc2c1N=C(NC(=O)c1cnccc1C)N1CCN=C21.Cl [Example 2-120] | < 100 nM | 220 °C (dec.) |
| COc1cccc2c1N=C(NC(=O)c1cnccc1C(F)(F)F)N1CCN=C21 [Example 2-121] | 100 to 500 nM | 144 to 145 °C |
| COc1cccc2c1N=C(NC(=O)c1cncc(O)c1)N1CCN=C21.Cl [Example 2-122] | < 100 nM | 285 °C (dec.) |
| COc1cccc2c1N=C(NC(=O)c1ccc(N)nc1)N1CCN=C21.Cl [Example 2-123] | < 100 nM | 296 °C |

| SMILES | IC50 [1] | melting point |
| --- | --- | --- |
| COc1cccc2c1N=C(NC(=O)c1ccc3[nH]cnc3c1)N1CCN=C21 [Example 2-124] | < 100 nM | 287 °C |
| COc1cccc2c1N=C(NC(=O)c1cc3cccnc3nc1C)N1CCN=C21 [Example 2-126] | < 100 nM | 183 to 184 °C |
| COc1cccc2c1N=C(NC(=O)c1cc3cccnc3nc1C(F)(F)F)N1CCN=C21 [Example 2-128] | < 100 nM | 214 °C (dec.) |
| O=C(NC1=Nc2ccccc2C2=NCCN12)c1cccnc1.O=C(O)C(F)(F)F [Example 2-130] | < 100 nM | 237 to 239 °C |
| Cc1ncccc1C(=O)NC1=Nc2ccccc2C2=NCCN12 [Example 2-131] | 100 to 500 nM | 193 to 194 °C |
| Nc1ncccc1C(=O)NC1=Nc2ccccc2C2=NCCN12 [Example 2-133] | 100 to 500 nM | 215 °C (dec.) |
| O=C(NC1=Nc2ccccc2C2=NCCN12)c1cccnc1Cl [Example 2-134] | < 100 nM | 198 to 199 °C |
| Cl.O=C(NC1=Nc2ccccc2C2=NCCN12)c1cccnc1Cl [Example 2-135] | 100 to 500 nM | 340 °C (dec.) |
| Cc1ccncc1C(=O)NC1=Nc2ccccc2C2=NCCN12 [Example 2-136] | 100 to 500 nM | 194 to 195 °C |
| O=C(NC1=Nc2ccccc2C2=NCCN12)c1cncc(O)c1 [Example 2-138] | < 100 nM | 273 °C (dec.) |
| COc1cncc(C(=O)NC2=Nc3ccccc3C3=NCCN23)c1 [Example 2-140] | 100 to 500 nM | 219 °C (dec.) |
| O=C(O)c1cncc(C(=O)NC2=Nc3ccccc3C3=NCCN23)c1 [Example 2-142] | 100 to 500 nM | 358 to 359 °C |
| CS(=O)(=O)Nc1cncc(C(=O)NC2=Nc3ccccc3C3=NCCN23)c1 [Example 2-143] | < 100 nM | 265 to 269 °C |
| Nc1cncc(C(=O)NC2=Nc3ccccc3C3=NCCN23)c1 [Example 2-144] | < 100 nM | 263 to 266 °C |
| Nc1cncc(C(=O)NC2=Nc3ccccc3C3=NCCN23)c1.O=C(O)C(F)(F)F [Example 2-145] | 100 to 500 nM | 220 °C (dec.) |
| CN(C)/C=N/c1cncc(C(=O)NC2=Nc3ccccc3C3=NCCN23)c1 [Example 2-146] | 100 to 500 nM | 219 °C (dec.) |
| Cc1ccc(C(=O)NC2=Nc3ccccc3C3=NCCN23)cn1 [Example 2-147] | < 100 nM | 195 to 196 °C |
| Nc1ccc(C(=O)NC2=Nc3ccccc3C3=NCCN23)cn1 [Example 2-149] | < 100 nM | > 300 °C |
| CC(=O)Nc1ccc(C(=O)NC2=Nc3ccccc3C3=NCCN23)cn1 [Example 2-151] | < 100 nM | 320 °C (dec.) |
| CNc1ccc(C(=O)NC2=Nc3ccccc3C3=NCCN23)cn1 [Example 2-153] | 100 to 500 nM | 196 to 197 °C |
| Nc1cccc(C(=O)NC2=Nc3ccccc3C3=NCCN23)c1.O=C(O)C(F)(F)F [Example 2-162] | 100 to 500 nM | 191 °C (dec.) |
| Nc1ccc(C(=O)NC2=Nc3ccccc3C3=NCCN23)cc1.O=C(O)C(F)(F)F [Example 2-163] | 100 to 500 nM | 232 °C (dec.) |

The next lines start with the values.

| IC50 [1] | melting point | SMILES |
| --- | --- | --- |
| 100 to 500 nM | 324 °C (dec.) | Cl.O=C(NC1=Nc2ccccc2C2=NCCN12)c1ccc(Cl)nc1 [Example 2-155] |
| 100 to 500 nM | 287 °C (dec.) | Cc1ccc(C(=O)NC2=Nc3ccccc3C3=NCCN23)c(Cl)n1.Cl [Example 2-156] |
| 100 to 500 nM | 146 to 148 °C | Cc1nc(N)ccc1C(=O)NC1=Nc2ccccc2C2=NCCN12 [Example 2-157] |
| 100 to 500 nM | 246 to 247 °C | Cc1cc(C(=O)NC2=Nc3ccccc3C3=NCCN23)cnc1N [Example 2-159] |
| 100 to 500 nM | 298 °C (dec.) | Cc1c(C(=O)NC2=Nc3ccccc3C3=NCCN23)cnc(N)c1C.Cl [Example 2-161] |
| 100 to 500 nM | 333 °C (dec.) | Cl.Cn1cnc2cc(C(=O)NC3=Nc4ccccc4C4=NCCN34)ccc21 [Example 2-167] |
| 100 to 500 nM | 295 °C (dec.) | Cl.O=C(NC1=Nc2ccccc2C2=NCCN12)c1cccc2[nH]ccc12 [Example 2-169] |
| 100 to 500 nM | 277 to 279 °C | Cc1nc2ccccn2c1C(=O)NC1=Nc2ccccc2C2=NCCN12 [Example 2-170] |
| < 100 nM | > 300 °C | O=C(NC1=Nc2ccccc2C2=NCCN12)c1cnc2[nH]cnc2c1 [Example 2-172] |
| 100 to 500 nM | 296 °C (dec.) | Cc1nc2ncccc2cc1C(=O)NC1=Nc2ccccc2C2=NCCN12 [Example 2-174] |
| 100 to 500 nM | 248 to 249 °C | Cl.O=C(NC1=Nc2ccccc2C2=NCCN12)c1cc2cccnc2nc1C(F)(F)F [Example 2-176] |
| 100 to 500 nM | 275 °C (dec.) | O=C(NC1=Nc2ccccc2C2=NCCN12)c1ccc2cccnc2n1 [Example 2-177] |
| 100 to 500 nM | 187 to 188 °C | O=C(NC1=Nc2ccccc2C2=NCCN12)c1cccs1 [Example 2-178] |
| < 100 nM | 310 °C (dec.) | Cl.O=C(NC1=Nc2ccccc2C2=NCCN12)c1cccs1 [Example 2-179] |
| 100 to 500 nM | 198 to 199 °C | O=C(NC1=Nc2ccccc2C2=NCCN12)c1sccc1Cl [Example 2-180] |
| 100 to 500 nM | > 250 °C | Cc1ccsc1C(=O)NC1=Nc2ccccc2C2=NCCN12.Cl [Example 2-182] |
| 100 to 500 nM | 167 °C (dec.) | O=C(NC1=Nc2ccccc2C2=NCCN12)c1ccsc1 [Example 2-183] |
| 100 to 500 nM | 217 to 218 °C | O=C(NC1=Nc2ccccc2C2=NCCN12)c1ccoc1 [Example 2-185] |
| 100 to 500 nM | 285 °C (dec.) | Cc1nocc1C(=O)NC1=Nc2ccccc2C2=NCCN12.Cl [Example 2-186] |
| 100 to 500 nM | 280 to 281 °C | Cc1noc(C)c1C(=O)NC1=Nc2ccccc2C2=NCCN12.Cl [Example 2-187] |
| 100 to 500 nM | 306 °C (dec.) | Cl.O=C(NC1=Nc2ccccc2C2=NCCN12)c1nccs1 [Example 2-188] |
